Where “and” joins values, the source holds several entries; their conditions need not be identical. Identical values can stand only once. Like-named read-outs stand apart in the source and are kept apart here.
Key:
HIV-1BaL = assay: p24 endpoint antiviral assay in primary human CD4+ T-lymphocytes; format: cell-based; conditions: Human immunodeficiency virus 1, CD4+ T, read-out: mean EC50
[1] = test system: single-cycle reporter HIV-1; assay: microbe, parasite or virus in culture; format: cell-based
Cytotoxicity assay [2] = format: cell-based; conditions: human, MT-4 cells
Cytotoxicity assay [3] = format: cell-based; conditions: human, quiescent PBMCs
Cytotoxicity assay [4] = format: cell-based, human; conditions: human, stimulated PBMCs
Stimulated PBMCs = assay: Cytotoxicity assay; format: cell-based, human; conditions: PBMCs
Cytotoxicity assay [5] = format: cell-based; conditions: human, primary CD4+ T-lymphocytes
[6] = test system: HIV-1 recombinant strains resistant to NRTIs, NNRTIs, INSTIs, PIs or MIs; format: cell-based
HIV-1 CA mutants = format: cell-based; conditions: mutant/WT EC50 ratio
[7] = test system: primary human hepatocytes; assay: Metabolic stability of [3H]GS-6207 in primary human hepatocytes; format: in vitro ADME; conditions: [3H]GS-6207, primary human hepatocytes
[8] = format: in vivo, human; conditions: for AUCexp: healthy volunteers, mean (%CV); for time plasma concentrations exceeded paEC95: single SC, healthy participants
HIV-1 = format: in vivo; conditions: for Maximum HIV-1 RNA change through day 9: individual participants
[9] = Study GS-US-200-4072: safety in participants living with HIV; format: in vivo, human; conditions: for Any AE / Arthralgia / Constipation / Haemorrhoids / Headache / Injection site erythema / Injection site induration / Injection site nodule / Injection site pain / Nasopharyngitis / Nausea / Oropharyngeal pain / Rash / Serious AE: Atrial fibrillation / Syphilis / Upper respiratory tract infection / Vomiting: PLWH
[10] = both, human, plasma, sc, 100 mg
[11] = both, human, plasma, sc, 300 mg
[12] = both, human, plasma, sc, 450 mg
[13] = GS-6207 20 mg or Placebo (n = 8)
[14] = GS-6207 50 mg or Placebo (n = 8)

SMILES: CC(C)(C#Cc1ccc(-c2ccc(Cl)c3c(NS(C)(=O)=O)nn(CC(F)(F)F)c23)c([C@H](Cc2cc(F)cc(F)c2)NC(=O)Cn2nc(C(F)(F)F)c3c2C(F)(F)[C@@H]2C[C@H]32)n1)S(C)(=O)=O [GS-6207]
- EC50 (HIV-1BaL): 0.032 nM
- EC50 ([1]; Human immunodeficiency virus 1): 0.025 nM
- EC50 ([1]; Human immunodeficiency virus 1, HEK-293T): 0.439 nM
- EC50 ([1]; Human immunodeficiency virus 1, MT2): 0.023 nM
- CC50 (Cytotoxicity assay [2]): 24700 ± 18300 nM
- CC50 (Cytotoxicity assay [3]): > 44400 nM
- CC50 (Cytotoxicity assay [4]): > 50000 nM
- therapeutic index (CC50/EC50) (Stimulated PBMCs): > 1,000,000
- CC50 (Cytotoxicity assay [5]): > 50000 nM
- Fold resistance ([6]; HIV-1 mutant 6TAMs (NRTI)): 0.2 ± 0.1 (3)
- Fold resistance ([6]; HIV-1 mutant E92Q+N155H (INSTI)): 0.8 ± 0.4 (3)
- Fold resistance ([6]; HIV-1 mutant E138K+Q148K (INSTI)): 0.6 ± 0.3 (3)
- Fold resistance ([6]; HIV-1 mutant G48V+V82A+L90M (PI)): 0.5 ± 0.2 (3)
- Fold resistance ([6]; HIV-1 mutant G48V+V82S (PI)): 0.4 ± 0.2 (3)
- Fold resistance ([6]; HIV-1 mutant G140S+Q148R (INSTI)): 0.8 ± 0.3 (3)
- Fold resistance ([6]; HIV-1 mutant I84V+L90M (PI)): 0.3 ± 0.1 (3)
- Fold resistance ([6]; HIV-1 mutant K65R (NRTI)): 0.6 ± 0.2 (3)
- Fold resistance ([6]; HIV-1 mutant K103N+Y181C (NNRTI)): 0.6 ± 0.2 (3)
- Fold resistance ([6]; HIV-1 mutant L100I+K103N (NNRTI)): 0.5 ± 0.2 (3)
- Fold resistance ([6]; HIV-1 mutant M46I+I50V (PI)): 0.7 ± 0.2 (3)
- Fold resistance ([6]; HIV-1 mutant M184V (NRTI)): 0.3 ± 0.3 (3)
- Fold resistance ([6]; HIV-1 mutant N155H+Q148R (INSTI)): 1.2 ± 0.7 (3)
- Fold resistance ([6]; HIV-1 mutant V7A in SP1 (MI)): 0.8 ± 0.4 (8)
- Fold resistance ([6]; HIV-1 mutant V230I in CA (MI)): 0.7 ± 0.2 (6)
- Fold resistance ([6]; HIV-1 mutant Y188L (NNRTI)): 0.5 ± 0.1 (3)
- Fold GS-6207 resistance (HIV-1 CA mutants; HIV-1 CA K70N): 24
- Fold GS-6207 resistance (HIV-1 CA mutants; HIV-1 CA L56I): 239
- Fold GS-6207 resistance (HIV-1 CA mutants; HIV-1 CA M66I): >3,226
- Fold GS-6207 resistance (HIV-1 CA mutants; HIV-1 CA N74D): 22
- Fold GS-6207 resistance (HIV-1 CA mutants; HIV-1 CA Q67H): 6
- Fold GS-6207 resistance (HIV-1 CA mutants; HIV-1 CA WT): 1
- hepatic extraction [7]: 0.8%
- predicted rate of hepatic clearance [7]: 0.17 mL/min/kg
- AUCexp ([8]; 30 mg SC): 17.6 (69.4) %
- AUCexp ([8]; 100 mg SC): 6.78 (65.0) %
- AUCexp ([8]; 300 mg SC): 5.39 (126) %
- AUCexp ([8]; 450 mg SC): 3.29 (69.9) %
- AUC(0-inf) ([8]; both, human, plasma, sc, 30 mg): 8700 ng·h/mL
- AUC(0-t) ([8]; both, human, plasma, sc, 30 mg): 5500 ng·h/mL
- Cmax ([8]; both, human, plasma, sc, 30 mg): 3.2 ng/mL
- half-life ([8]; both, human, plasma, sc, 30 mg): 37 days
- AUC(0-inf) [8, 10]: 27300 ng·h/mL
- AUC(0-t) [8, 10]: 23600 ng·h/mL
- Cmax [8, 10]: 14.7 ng/mL
- half-life [8, 10]: 31.9 days
- AUC(0-inf) [8, 11]: 86100 ng·h/mL
- AUC(0-t) [8, 11]: 73100 ng·h/mL
- Cmax [8, 11]: 47.9 ng/mL
- half-life [8, 11]: 45.4 days
- AUC(0-inf) [8, 12]: 108000 ng·h/mL
- AUC(0-t) [8, 12]: 97600 ng·h/mL
- Cmax [8, 12]: 58.4 ng/mL
- Tmax [8, 12]: 14 days
- half-life [8, 12]: 39.7 days
- time plasma concentrations exceeded paEC95 ([8]; doses ≥ 100 mg): ≥ 12 weeks
- time plasma concentrations exceeded paEC95 ([8]; doses ≥ 300 mg): > 24 weeks
- duration of sustained plasma exposure at antivirally active concentrations ([8]; single subcutaneous dose 450 mg): > 6 months
- Maximum HIV-1 RNA change through day 9 (HIV-1; 20 mg): −0.83 log10 copies ml^−1 and −1.58 log10 copies ml^−1 and −1.74 log10 copies ml^−1 and −1.43 log10 copies ml^−1 and −1.33 log10 copies ml^−1 and −1.21 log10 copies ml^−1
- Maximum HIV-1 RNA change through day 9 (HIV-1; 50 mg): −1.55 log10 copies ml^−1 and −1.61 log10 copies ml^−1 and −2.32 log10 copies ml^−1 and −1.16 log10 copies ml^−1 and −1.73 log10 copies ml^−1 and −2.39 log10 copies ml^−1
- Maximum HIV-1 RNA change through day 9 (HIV-1; 150 mg): −2.06 log10 copies ml^−1 and −1.68 log10 copies ml^−1 and −1.86 log10 copies ml^−1 and −1.49 log10 copies ml^−1 and −1.87 log10 copies ml^−1 and −1.62 log10 copies ml^−1
- Maximum HIV-1 RNA change through day 9 (HIV-1; 450 mg): −2.32 log10 copies ml^−1 and −2.86 log10 copies ml^−1 and −2.11 log10 copies ml^−1 and −1.83 log10 copies ml^−1 and −1.58 log10 copies ml^−1 and −2.52 log10 copies ml^−1
- mean maximum reduction in plasma HIV-1 RNA through 9 days (HIV-1; single 20 mg SC): 1.35 log10
- mean maximum reduction in plasma HIV-1 RNA through 9 days (HIV-1; single 50 mg SC): 1.79 log10
- mean maximum reduction in plasma HIV-1 RNA through 9 days (HIV-1; single 150 mg SC): 1.76 log10
- mean maximum reduction in plasma HIV-1 RNA through 9 days (HIV-1; single 450 mg SC): 2.20 log10 and 2.2 log10
- Any AE [9, 13]: 5 (63) n (%)
- Arthralgia [9, 13]: 0 n (%)
- Constipation [9, 13]: 0 n (%)
- Haemorrhoids [9, 13]: 0 n (%)
- Headache [9, 13]: 1 (13) n (%)
- Injection site erythema [9, 13]: 1 (13) n (%)
- Injection site induration [9, 13]: 0 n (%)
- Injection site nodule [9, 13]: 0 n (%)
- Injection site pain [9, 13]: 0 n (%)
- Nasopharyngitis [9, 13]: 0 n (%)
- Nausea [9, 13]: 2 (25) n (%)
- Oropharyngeal pain [9, 13]: 1 (13) n (%)
- Rash [9, 13]: 1 (13) n (%)
- Serious AE: Atrial fibrillation [9, 13]: 0 n (%)
- Syphilis [9, 13]: 0 n (%)
- Upper respiratory tract infection [9, 13]: 0 n (%)
- Vomiting [9, 13]: 2 (25) n (%)
- Any AE [9, 14]: 6 (75) n (%)
- Arthralgia [9, 14]: 0 n (%)
- Constipation [9, 14]: 1 (13) n (%)
- Haemorrhoids [9, 14]: 1 (13) n (%)
- Headache [9, 14]: 0 n (%)
- Injection site erythema [9, 14]: 1 (13) n (%)
- Injection site induration [9, 14]: 1 (13) n (%)
- Injection site nodule [9, 14]: 1 (13) n (%)
- Injection site pain [9, 14]: 4 (50) n (%)
- Nasopharyngitis [9, 14]: 0 n (%)
- Nausea [9, 14]: 1 (13) n (%)
- Oropharyngeal pain [9, 14]: 1 (13) n (%)
- Rash [9, 14]: 1 (13) n (%)
- Serious AE: Atrial fibrillation [9, 14]: 0 n (%)
- Syphilis [9, 14]: 1 (13) n (%)
- Upper respiratory tract infection [9, 14]: 0 n (%)
- Vomiting [9, 14]: 1 (13) n (%)
- safety and tolerability ([9]; single SC 20 to 450 mg, participants with untreated HIV-1 infection): generally safe and well tolerated

Reference: article PMC8188729 (Nature, 2020)
